Patent US9469878B2, “Methods of treating cancer comprising targeting NQO1” (The Board of Regents of the University of Texas System, priority 2010, dated 2016)
Each block holds one compound with its values, some of them ahead of it.

Tests used:
[1] = test system: PARP1 in A549 NSCLC cells; test: PAR formation, Western blot; type: cell-based, human; conditions: 25 mM, β-lap-treated A549 NSCLC cells
Method: Whole-cell extracts were prepared, proteins separated by SDSPAGE, and Western blots developed using SuperSignal® West Pico Chemiluminescent substrate (Thermo Scientific, Rockford, Ill.), and exposed using Autoradiography Film (Denville Scientific Inc., Metuchen, N.J.). An anti-human NQO1 antibody was kindly provided to us by Dr. David Ross (University of Colorado Health Science Center, Denver, Colo.) and used at a 1:5000 dilution overnight at 4° C.

PARP1 in MCF-7 cells = test: Western-blot analyses for PARP1 cleavage; type: cell-based, human; conditions: pre-treatment, 4 μM β-lap 2 h pulse
Method: For Western-blot analyses for PARP1 cleavage-MCF-7 cells seeded in 10 cm dishes were treated with 4 μM β-lap in the absence or presence of 1000 U of catalase dissolved in hepes buffer pH 7.4 for 2 h. Cells were then given fresh media and incubated at 37° C. for 24 h. Cells were then harvested in PARP1 lysis buffer. Lysates were resolved in 10% SDS-PAGE and immunoblotted onto PVDF membranes and probed with a monoclonal PARP1 antibody (SC-8007). […] Relative PAR levels were calculated by densitometric analyses by NIH ImageJ using PARP1 loading controls. Measurements were normalized to t=0 levels. Western blots shown are representative of separate experiments performed at least three times.

PC-3 cells = test: Intracellular NAD+ and ATP levels; type: cell-based, human; conditions: pre- and co-treatment, 2 or 3 Gy+3 μM β-lap
Method: ATP levels were analyzed from whole-cell extracts using CellTiter-Glo Luminescent Cell Viability Assays (Promega, Madison, Wis.) following the manufacture's instructions. Data were graphed as means±SE from at least three independent experiments in triplicates.

NQO1 [2] = molecular target: T1, NQO1 (Homo sapiens, UniProt P15559, P187S); test: NQO1 enzyme assays using β-lapachone or the standard menadione substrates; type: biochemical; conditions: single value given
T1 construct: S9 Supernatants were prepared from cells in mid-log to late log phase growth; endogenous in cells; host or cells: cancer cell lines, mostly from a non-small cell lung cancer panel; S9 supernatants
Method: (§1) S9 Supernatants were prepared from cells in mid-log to late log phase growth. […] The cell suspensions were sonicated on ice four times, using 10-s pulses, and then centrifuged at 14,000×g for 20 min. The S9 supernatants were aliquoted into microcentrifuge tubes and stored at −80° C. until used. A 1× protease inhibitor cocktail was added to prevent enzyme activity degradation. […] Menadione was used as the electron acceptor. NADH was used as the electron donor.
(§2) NQO1 activity was measured using NADH (200 μM) as the immediate electron donor and menadione (10 μM) as the intermediate electron acceptor. […] Biochem. Biophys. […] NADH: cytochrome b5 reductase was measured using NADH (200 μM) as the electron donor, and […] was measured using NADPH (200 μM) as electron donor (45) in a Beckman DU 640 spectrophotometer (Beckman Coulter, Fullerton, Calif.). Reactions were carried out at 37° C. and were initiated by the addition of S9 supernatants. Varying amounts of supernatants, from 10 to 40 μL, were used to ensure linearity of rates with protein concentration. […] Results shown are the average enzyme activity for three separate cell extractions±S.D. or both values from duplicate experiments.
(§3) Cell lines, mostly from a 5-panel nonsmall cell lung cancer panel from the UT Southwestern SPORE, were assessed for NQO1 polymorphism status and then monitored for NQO1 enzyme assays using β-lapachone or the standard menadione substrates. […] NQO1*2/*2 and *3/*3 polymorphisms were detected from NQO1 *1/*1 wild-type sequences by PCR-RFLP. Genomic DNA was extracted from the cells using Qiagen spin columns. Using previously described oligonucleotide primers, PCR products underwent gel electrophoresis. Final genotyping was determined based on the size and pattern of separated bands diagnostic for *1/*1 (wild-type), or polymorphic *2/*2 or *3/*3 NQO1 polymorphisms.

NQO1 [3] = molecular target: T2, NQO1 (Homo sapiens, UniProt P15559, R139W); test: as above; type: biochemical; conditions: menadione as substrate
T2 construct: S9 Supernatants were prepared from cells in mid-log to late log phase growth; endogenous in cells; host or cells: cancer cell lines, mostly from a non-small cell lung cancer panel (e.g. Calu-3); S9 supernatants
Method: as §1, §2, §3

NQO1 [4] = test: as above; type: biochemical, human; conditions: menadione as substrate
Method: as §1, §2, §3

NQO1 [5] = molecular target: NQO1 (Homo sapiens, UniProt P15559); test: as above; type: biochemical; design: S9 Supernatants were prepared from cells in mid-log to late log phase growth; endogenous in cells; host or cells: cancer cell lines, mostly from a non-small cell lung cancer panel; S9 supernatants; conditions: menadione as substrate
Method: as §1, §2, §3

[6] = test system: MDA-MB-231 cells expressing NQO1 (231+); test: Long term survival assay; type: cell-based, human; conditions: 231-NQ+ cells
Method: Cells were cultured and treated as described above.
Data were expressed as relative survival (treated/control×100%).

[7] = test system: Human (shown) or mouse rbs; test: Hemolysis of red blood cells; type: cell-based; conditions: rbs incubated with HPβCD alone, HPβCD-β-lap, or β-lap alone in DMSO
Method: Human (shown) or mouse rbs were incubated with HPβCD alone or HPβCD-β-lap, or β-lap alone in DMSO.

Chain of NQO1 (Homo sapiens, UniProt P15559) (P15559 whole entry): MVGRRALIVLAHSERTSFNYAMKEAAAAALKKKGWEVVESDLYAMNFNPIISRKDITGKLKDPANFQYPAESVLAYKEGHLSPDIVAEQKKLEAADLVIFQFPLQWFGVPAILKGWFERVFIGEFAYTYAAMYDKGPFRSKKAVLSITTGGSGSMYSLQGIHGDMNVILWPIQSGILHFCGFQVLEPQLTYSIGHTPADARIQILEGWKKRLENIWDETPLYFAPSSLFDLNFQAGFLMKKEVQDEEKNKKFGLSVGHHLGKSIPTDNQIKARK
T1 sequence (P15559 whole entry P187S): as the sequence (P15559 whole entry) above, with P187S counted along it
T2 sequence (P15559 whole entry R139W): as the sequence (P15559 whole entry) above, with R139W counted along it

Compound: NC(=O)c1cccc(N)c1 [3-aminobenzamide]
- Effect on PAR formation [1]: spares and delays PAR formation

Compound: CC(=O)OCOC(=O)CN(CC(=O)OCOC(C)=O)c1ccccc1OCCOc1ccccc1N(CC(=O)OCOC(C)=O)CC(=O)OCOC(C)=O [BAPTA-AM]
- Effect on β-lap-mediated proteolysis of PARP1 and lethality (PARP1 in MCF-7 cells): prevented

Compound: O=C1NCCc2c(OCCCCN3CCCCC3)cccc21 [DPQ, 3,4-dihydro-5[4-(1-piperindinyl)butoxy]-1(2H)-isoquinoline]
- Effect on synergistic losses of ATP (PC-3 cells): prevented

- NQO1 activity, Men (NQO1 [2]; H596/NSCLC *2/*2): <1 ± 0.01 nmol/min/µg
- NQO1 activity, Men (NQO1 [2]; H2882/NSCLC *2/*2): <1 ± 0.01 nmol/min/µg
- NQO1 activity, Men (NQO1 [2]; HCC366/NSCLC *2/*2): <1 ± 0.01 nmol/min/µg
- NQO1 activity, Men (NQO1 [2]; MDA-MB-231/Breast *2/*2): 1 ± 0.05 nmol/min/µg
- NQO1 activity, Men (NQO1 [2]; MDA-MB-468/Breast *2/*2): <1 ± 0.01 nmol/min/µg
- NQO1 activity, Men (NQO1 [3]; Calu-3/NSCLC *3/*3): 48 ± 3 nmol/min/µg
- NQO1 activity, Men (NQO1 [3]; H2009/NSCLC *3/*3): 4.0 ± 1 nmol/min/µg
- NQO1 activity, Men (NQO1 [3]; HCC1171/NSCLC *3/*3): 98 ± 17 nmol/min/µg
- NQO1 activity, Men (NQO1 [3]; T47D/BreastCancer *3/*3): 32 ± 2 nmol/min/µg
- NQO1 activity, Men (NQO1 [4]; H292 *1/*2): 169 +/− 17; ND nMoles/min/μg
- NQO1 activity, Men (NQO1 [4]; HCC44 *1/*2): 148 ± 14 nmol/min/µg
- NQO1 activity, Men (NQO1 [5]; H322 *1/*1): 1234 +/− 40; ND nMoles/min/μg
- NQO1 activity, Men (NQO1 [5]; H1648 *1/*1): 1370 +/− 17; ND nMoles/min/μg
- NQO1 activity, Men (NQO1 [5]; H1993 *1/*1): 1170 ± 30 nmol/min/µg
- NQO1 activity, Men (NQO1 [5]; H2073 *1/*1): 1340 +/− 20; ND nMoles/min/μg
Compound: CC1=CC(=O)c2ccccc2C1=O [Men, menadione]

Compound: CC(=O)N[C@@H](CS)C(=O)O [NAC, N-acetyl-L-cysteine]
- Effect on lethal effects of β-lap ([6]; pre- and co-treatments): protected against the lethal effects of 2 μM β-lap, but not 3 μM

Compound: Catalase
- Catalase amount that significantly protected cells from the lethal effects of β-lap ([6]; exogenous catalase): ≥ 500 units

Compound: Z-VAD
- Effect on β-lap-mediated proteolysis of PARP1 and lethality (PARP1 in MCF-7 cells): ineffective

Compound: hydroxypropyl-β-cyclodextrin [HPβCD]
- Hemolysis [7]: caused significant hemolyses
